Results as given in ChEMBL document CHEMBL3739366, “Discovery of HTL6641, a dual orexin receptor antagonist with differentiated pharmacodynamic properties” (Medchemcomm, 2015).
The source made the active and inactive calls. No cut-off for these calls is given here.

How the values were obtained:
[1] = Clearance in Sprague-Dawley rat at 1 mg/kg, iv; assay type: ADME, organism-based; conditions: in vivo
[2] = Volume of distribution at steady state in Sprague-Dawley rat at 1 mg/kg, iv; assay type: ADME, organism-based; conditions: in vivo, read-out: Vdss
[3] = Half life in Sprague-Dawley rat at 2 mg/kg, po; assay type: ADME, organism-based; conditions: in vivo
Rattus norvegicus [4] = experiment: AUC (infinity) in Sprague-Dawley rat at 2 mg/kg, po; assay type: ADME, organism-based; set-up: dose 2 mg/kg, route oral, time infinity; conditions: in vivo
[5] = Tmax in Sprague-Dawley rat at 2 mg/kg, po; assay type: ADME, organism-based; conditions: in vivo
[6] = Oral bioavailability in beagle dog at 1 mg/kg; assay type: ADME, organism-based, Canis lupus familiaris; conditions: in vivo
Cytochrome P450 1A2 = biological target: T1, Cytochrome P450 1A2 (Homo sapiens, UniProt P05177); experiment: Inhibition of CYP1A2 (unknown origin); assay type: ADME
T1 sequence (P05177 whole entry): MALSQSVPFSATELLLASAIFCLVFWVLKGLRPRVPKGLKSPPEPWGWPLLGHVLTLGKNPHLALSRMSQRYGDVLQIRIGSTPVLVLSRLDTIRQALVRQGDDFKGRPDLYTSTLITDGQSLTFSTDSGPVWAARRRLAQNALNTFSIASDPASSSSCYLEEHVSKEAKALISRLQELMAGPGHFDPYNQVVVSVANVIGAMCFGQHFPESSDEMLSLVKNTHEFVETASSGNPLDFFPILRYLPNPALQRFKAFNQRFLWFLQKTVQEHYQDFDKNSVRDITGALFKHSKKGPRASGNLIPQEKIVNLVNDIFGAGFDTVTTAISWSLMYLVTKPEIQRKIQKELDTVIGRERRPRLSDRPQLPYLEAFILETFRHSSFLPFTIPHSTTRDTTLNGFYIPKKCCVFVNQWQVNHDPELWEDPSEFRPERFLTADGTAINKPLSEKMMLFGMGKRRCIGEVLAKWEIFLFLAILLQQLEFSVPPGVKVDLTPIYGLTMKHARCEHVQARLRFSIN

Cytochrome P450 2C19 = Cytochrome P450 2C19 (Homo sapiens, UniProt P33261); experiment: Inhibition of CYP2C19 (unknown origin); assay type: ADME
Cytochrome P450 3A4 = Cytochrome P450 3A4 (Homo sapiens, UniProt P08684); experiment: Inhibition of CYP3A4 (unknown origin); assay type: ADME
[7] = Bidirectional apparent permeability of the compound across human Caco2 cells; assay type: ADME, cell-based; conditions: Caco-2, read-out: permeability
[8] = Plasma protein binding in mouse; assay type: ADME, cell-free; conditions: read-out: PPB (converted)
[9] = Half life in dog hepatocytes; assay type: ADME, cell-based, Canis lupus familiaris, Hepatocyte
Rattus norvegicus [10] = experiment: Ex-vivo receptor occupancy of orexin receptor-2 Sprague-Dawley rat frontal cortex using [3H]EMPA at 1 mg/kg, po after 1 hr by autoradiography relative to control; assay type: functional
Rattus norvegicus [11] = experiment: Antiinsomnic activity in CD1 rat assessed as hypnotic effect at 3 to 10 mg/kg, po administered at circadian time 18 hrs measured after 2 to 3 hrs; assay type: functional, organism-based
Rattus norvegicus [12] = experiment: Antiinsomnic activity in CD1 rat assessed as increase of promoted sleep at 3 to 10 mg/kg, po administered at circadian time 18 hrs measured after 3 hrs; assay type: functional
Rattus norvegicus [13] = experiment: Antiinsomnic activity in CD1 rat assessed as increase of REM sleep at 10 mg/kg, po administered at circadian time 18 hrs measured after 3 hrs; assay type: functional
Rattus norvegicus [14] = experiment: Antiinsomnic activity in CD1 rat assessed as increase of NREM sleep at 3 mg/kg, po administered at circadian time 18 hrs measured after 3 hrs; assay type: functional
Rattus norvegicus [15] = experiment: Effect on latency to first NREM episode CD1 rat assessed as reduction of at 3 and 10 mg/kg, po administered at circadian time 18 hrs; assay type: ADME, organism-based; conditions: in vivo
[16] = biological target: T2, Orexin/Hypocretin receptor type 1 (Homo sapiens) (UniProt O43613)
T2 sequence (whole entry): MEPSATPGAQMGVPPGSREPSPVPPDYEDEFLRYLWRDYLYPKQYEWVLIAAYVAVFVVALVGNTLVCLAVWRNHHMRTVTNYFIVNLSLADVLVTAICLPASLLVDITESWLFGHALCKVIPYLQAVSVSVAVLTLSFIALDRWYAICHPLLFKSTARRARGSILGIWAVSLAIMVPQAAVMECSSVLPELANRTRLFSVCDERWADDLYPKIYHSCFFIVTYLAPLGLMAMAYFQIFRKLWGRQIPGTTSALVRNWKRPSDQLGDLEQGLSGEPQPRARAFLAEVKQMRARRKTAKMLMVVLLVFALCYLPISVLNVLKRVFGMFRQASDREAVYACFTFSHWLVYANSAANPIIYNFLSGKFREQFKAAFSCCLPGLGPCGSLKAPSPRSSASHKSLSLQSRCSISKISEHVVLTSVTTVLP

Cytochrome P450 3A4, sequence (P08684 whole entry): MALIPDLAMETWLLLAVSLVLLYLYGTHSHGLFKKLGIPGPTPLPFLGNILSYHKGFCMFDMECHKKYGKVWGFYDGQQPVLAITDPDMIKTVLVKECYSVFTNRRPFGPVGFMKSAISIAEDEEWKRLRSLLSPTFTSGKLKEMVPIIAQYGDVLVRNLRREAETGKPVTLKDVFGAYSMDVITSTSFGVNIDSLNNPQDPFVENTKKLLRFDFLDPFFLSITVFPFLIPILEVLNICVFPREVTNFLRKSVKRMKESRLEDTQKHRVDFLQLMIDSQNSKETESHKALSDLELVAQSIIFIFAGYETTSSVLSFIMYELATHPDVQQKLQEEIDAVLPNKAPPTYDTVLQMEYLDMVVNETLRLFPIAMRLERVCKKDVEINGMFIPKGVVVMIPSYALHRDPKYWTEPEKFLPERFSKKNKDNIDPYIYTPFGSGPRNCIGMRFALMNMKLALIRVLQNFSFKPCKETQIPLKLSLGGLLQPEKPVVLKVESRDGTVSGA
Cytochrome P450 2C19, sequence (P33261 whole entry): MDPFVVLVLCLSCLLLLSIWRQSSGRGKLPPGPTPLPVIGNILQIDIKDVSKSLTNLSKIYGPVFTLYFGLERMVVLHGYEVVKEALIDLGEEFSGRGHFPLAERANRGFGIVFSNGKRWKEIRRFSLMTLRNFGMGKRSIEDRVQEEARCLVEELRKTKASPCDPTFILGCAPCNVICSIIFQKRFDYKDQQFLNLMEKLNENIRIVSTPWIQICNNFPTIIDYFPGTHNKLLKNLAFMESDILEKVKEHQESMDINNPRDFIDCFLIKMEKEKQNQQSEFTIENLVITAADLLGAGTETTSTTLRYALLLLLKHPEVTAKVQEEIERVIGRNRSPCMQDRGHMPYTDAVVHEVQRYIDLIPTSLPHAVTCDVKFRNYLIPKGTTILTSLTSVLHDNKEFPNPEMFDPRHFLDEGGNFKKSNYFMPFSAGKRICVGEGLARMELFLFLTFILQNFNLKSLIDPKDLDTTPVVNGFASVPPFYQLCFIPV

clearance [1]: 18 mL/min/kg | Vd [2]: 2.1 L/kg | half-life [3]: 108 min | AUC (Rattus norvegicus [4]): 1220 ng·h/mL | Tmax [5]: 30 min | bioavailability [6]: 70% | IC50 (Cytochrome P450 1A2): > 10 µM | IC50 (Cytochrome P450 2C19): > 10 µM | IC50 (Cytochrome P450 3A4): > 10 µM | Papp [7]: 52 ×10⁻⁶ cm/s | fraction unbound [8]: 0.008 | half-life [9]: > 110 min | T1/2 [16]: 0.8 min
SMILES: COc1cc(N2C(=O)N(Cc3c(F)cc(F)cc3F)c3ncccc3S2(=O)=O)cnc1OC
Occ (Rattus norvegicus [10]): 57% | Activity (Rattus norvegicus [11]): Active | Activity (Rattus norvegicus [12]): 17.4% | Activity (Rattus norvegicus [13]): 69.6% | Activity (Rattus norvegicus [14]): 28.8% | Activity (Rattus norvegicus [15]): Non-toxic
